Source: ChEMBL document CHEMBL4507293 (2021)

Assays:
Caspase-3 (Homo sapiens) = Caspase-3 (Homo sapiens) (UniProt P42574); test: Peptidase, CASP3 (Caspase 3) Eurofins-Panlabs enzyme assay; settings: Compound concentration 10.0 uM
[1] = target: Cannabinoid receptor 2 (Homo sapiens) (UniProt P34972); settings: Compound concentration 10.0 uM
[2] = target: T1, Muscarinic acetylcholine receptor M5 (Homo sapiens) (UniProt P08912); test: Inhibition of Muscarinic M5 at 10 µM in the Eurofins-Panlabs radioligand binding assay (Eurofins_assay_253010); set-up: ligand concentration 0.8 nM; settings: Compound concentration 10.0 uM
T1 sequence (whole entry): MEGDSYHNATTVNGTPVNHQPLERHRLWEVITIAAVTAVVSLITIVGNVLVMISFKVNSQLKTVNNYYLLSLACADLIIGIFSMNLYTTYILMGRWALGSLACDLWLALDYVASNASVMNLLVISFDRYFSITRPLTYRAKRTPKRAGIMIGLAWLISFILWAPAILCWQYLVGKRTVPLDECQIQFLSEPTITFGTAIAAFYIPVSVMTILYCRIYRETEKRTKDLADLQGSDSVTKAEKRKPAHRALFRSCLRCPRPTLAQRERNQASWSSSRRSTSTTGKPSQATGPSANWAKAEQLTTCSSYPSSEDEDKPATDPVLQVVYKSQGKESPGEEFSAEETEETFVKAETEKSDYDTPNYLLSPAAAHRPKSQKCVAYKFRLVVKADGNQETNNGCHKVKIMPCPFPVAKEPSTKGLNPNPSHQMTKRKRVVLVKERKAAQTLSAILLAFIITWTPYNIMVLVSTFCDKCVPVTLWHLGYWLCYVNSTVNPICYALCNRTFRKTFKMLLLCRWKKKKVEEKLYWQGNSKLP

[3] = target: Histamine H4 receptor (Homo sapiens) (UniProt Q9H3N8); test: Histamine H4 Eurofins-Panlabs radioligand binding assay; settings: Compound concentration 10.0 uM
[4] = target: Alpha-2A adrenergic receptor (Homo sapiens) (UniProt P08913); test: Adrenergic alpha2A Eurofins-Panlabs radioligand binding assay; set-up: ligand concentration 1 nM, non-specific ligand with concentration 10 µM WB-4101, incubation time 60 min, incubation temperature 25 °C; settings: Compound concentration 10.0 uM
[5] = target: 5-hydroxytryptamine receptor 6 (Homo sapiens) (UniProt P50406); test: Inhibition of Serotonin (5-Hydroxytryptamine) 5-HT6 at 10 µM in the Eurofins-Panlabs radioligand binding assay (Eurofins_assay_272200); settings: Compound concentration 10.0 uM
[6] = target: T2, Glutamate NMDA receptor (Rattus norvegicus) (UniProt P35439+Q00959+Q00960+Q00961+Q62645+Q8VHN2+Q9R1M7); settings: Compound concentration 10.0 uM
[7] = target: Acetylcholine receptor subunit alpha (Homo sapiens) (UniProt P02708); test: Inhibition of Nicotinic Acetylcholine D1, Bungarotoxin at 10 µM in the Eurofins-Panlabs radioligand binding assay (Eurofins_assay_258700); settings: Compound concentration 10.0 uM
Acetylcholine receptor subunit alpha (Homo sapiens), sequence (P02708 whole entry): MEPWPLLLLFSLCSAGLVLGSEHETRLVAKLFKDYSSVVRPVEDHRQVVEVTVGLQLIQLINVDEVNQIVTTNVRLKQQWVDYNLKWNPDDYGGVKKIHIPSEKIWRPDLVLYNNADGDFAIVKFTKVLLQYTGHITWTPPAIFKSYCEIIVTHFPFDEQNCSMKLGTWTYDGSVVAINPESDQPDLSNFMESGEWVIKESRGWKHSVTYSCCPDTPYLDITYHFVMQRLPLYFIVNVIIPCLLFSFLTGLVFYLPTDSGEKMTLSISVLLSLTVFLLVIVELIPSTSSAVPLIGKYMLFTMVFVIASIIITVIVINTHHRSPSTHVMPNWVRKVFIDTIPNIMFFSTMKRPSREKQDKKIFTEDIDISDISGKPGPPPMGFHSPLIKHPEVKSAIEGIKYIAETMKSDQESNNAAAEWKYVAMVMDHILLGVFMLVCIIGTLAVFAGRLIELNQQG

Rattus norvegicus [8] = species on record: Rattus norvegicus; test: Glutamate, NMDA, Polyamine Eurofins-Panlabs radioligand binding assay; assay type: protein-complex assay; set-up: ligand concentration 2 nM; settings: Compound concentration 10.0 uM
[9] = target: Melanocortin receptor 4 (Homo sapiens) (UniProt P32245); test: Inhibition of Melanocortin MC4 at 10 µM in the Eurofins-Panlabs radioligand binding assay (Eurofins_assay_251350); set-up: ligand concentration 0.02 nM; settings: Compound concentration 10.0 uM
[10] = target: Glutamate receptor 2 (Homo sapiens) (UniProt P42262); settings: Rattus norvegicus; Compound concentration 10.0 uM
Glutamate receptor 2 (Homo sapiens), sequence (P42262 whole entry): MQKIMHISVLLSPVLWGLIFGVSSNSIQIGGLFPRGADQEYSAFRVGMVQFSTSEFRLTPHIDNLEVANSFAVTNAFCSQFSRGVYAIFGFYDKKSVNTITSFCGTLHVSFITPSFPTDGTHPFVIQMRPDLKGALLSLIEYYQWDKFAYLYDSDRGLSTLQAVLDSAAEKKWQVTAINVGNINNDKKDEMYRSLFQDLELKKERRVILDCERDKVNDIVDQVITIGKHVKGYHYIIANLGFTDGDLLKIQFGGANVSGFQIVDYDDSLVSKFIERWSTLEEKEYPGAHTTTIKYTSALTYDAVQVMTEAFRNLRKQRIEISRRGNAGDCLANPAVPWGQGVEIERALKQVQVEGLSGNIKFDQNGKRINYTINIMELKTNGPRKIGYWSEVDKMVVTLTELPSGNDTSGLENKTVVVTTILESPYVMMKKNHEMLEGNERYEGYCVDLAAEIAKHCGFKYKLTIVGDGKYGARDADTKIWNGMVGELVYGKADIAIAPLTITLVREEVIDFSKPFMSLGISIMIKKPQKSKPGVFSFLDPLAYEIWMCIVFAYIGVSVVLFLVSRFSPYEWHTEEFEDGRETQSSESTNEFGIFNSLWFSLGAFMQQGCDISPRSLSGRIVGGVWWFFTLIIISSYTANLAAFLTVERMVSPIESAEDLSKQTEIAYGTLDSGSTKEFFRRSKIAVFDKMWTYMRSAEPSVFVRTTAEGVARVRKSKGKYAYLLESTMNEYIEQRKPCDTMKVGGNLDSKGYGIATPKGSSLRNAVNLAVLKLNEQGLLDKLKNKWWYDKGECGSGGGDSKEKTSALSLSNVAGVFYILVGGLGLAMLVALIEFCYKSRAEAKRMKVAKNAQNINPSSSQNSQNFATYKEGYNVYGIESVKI

[11] = target: Cathepsin G (Homo sapiens) (UniProt P08311); test: Inhibition of Peptidase, CTSG (Cathepsin G) at 10 µM in the Eurofins-Panlabs enzyme assay (Eurofins_assay_112510); set-up: substrate with concentration; settings: Compound concentration 10.0 uM
Cathepsin G (Homo sapiens), sequence (P08311 whole entry): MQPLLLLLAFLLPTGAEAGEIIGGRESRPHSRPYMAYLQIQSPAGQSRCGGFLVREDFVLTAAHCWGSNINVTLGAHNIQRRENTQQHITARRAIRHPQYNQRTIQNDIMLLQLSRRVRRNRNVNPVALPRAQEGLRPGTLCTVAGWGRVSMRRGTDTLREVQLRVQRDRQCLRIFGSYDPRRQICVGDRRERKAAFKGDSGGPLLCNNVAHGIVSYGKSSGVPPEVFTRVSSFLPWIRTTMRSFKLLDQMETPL

[12] = target: T3, Muscarinic acetylcholine receptor M4 (Homo sapiens) (UniProt P08173); settings: Compound concentration 10.0 uM
T3 sequence (whole entry): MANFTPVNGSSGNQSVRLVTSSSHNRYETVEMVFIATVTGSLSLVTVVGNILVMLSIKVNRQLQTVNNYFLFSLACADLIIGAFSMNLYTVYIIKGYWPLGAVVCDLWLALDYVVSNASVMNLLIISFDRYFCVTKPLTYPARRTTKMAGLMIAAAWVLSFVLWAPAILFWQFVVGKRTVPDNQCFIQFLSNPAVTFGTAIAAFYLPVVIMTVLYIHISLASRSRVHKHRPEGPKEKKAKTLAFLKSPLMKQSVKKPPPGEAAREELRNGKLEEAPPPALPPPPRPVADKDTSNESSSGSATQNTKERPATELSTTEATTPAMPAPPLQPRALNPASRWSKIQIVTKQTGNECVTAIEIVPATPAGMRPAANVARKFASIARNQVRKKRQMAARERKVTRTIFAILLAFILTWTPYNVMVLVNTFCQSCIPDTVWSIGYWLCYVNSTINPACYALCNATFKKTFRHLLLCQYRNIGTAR

Rattus norvegicus [13] = species on record: Rattus norvegicus; test: GABAA, Ro-15-1788, Hippocampus Eurofins-Panlabs radioligand binding assay; set-up: ligand concentration 1 nM; settings: Compound concentration 10.0 uM
[14] = target: Sodium-dependent serotonin transporter (Homo sapiens) (UniProt P31645); settings: Compound concentration 10.0 uM
Sodium-dependent serotonin transporter (Homo sapiens), sequence (P31645 whole entry, looked up): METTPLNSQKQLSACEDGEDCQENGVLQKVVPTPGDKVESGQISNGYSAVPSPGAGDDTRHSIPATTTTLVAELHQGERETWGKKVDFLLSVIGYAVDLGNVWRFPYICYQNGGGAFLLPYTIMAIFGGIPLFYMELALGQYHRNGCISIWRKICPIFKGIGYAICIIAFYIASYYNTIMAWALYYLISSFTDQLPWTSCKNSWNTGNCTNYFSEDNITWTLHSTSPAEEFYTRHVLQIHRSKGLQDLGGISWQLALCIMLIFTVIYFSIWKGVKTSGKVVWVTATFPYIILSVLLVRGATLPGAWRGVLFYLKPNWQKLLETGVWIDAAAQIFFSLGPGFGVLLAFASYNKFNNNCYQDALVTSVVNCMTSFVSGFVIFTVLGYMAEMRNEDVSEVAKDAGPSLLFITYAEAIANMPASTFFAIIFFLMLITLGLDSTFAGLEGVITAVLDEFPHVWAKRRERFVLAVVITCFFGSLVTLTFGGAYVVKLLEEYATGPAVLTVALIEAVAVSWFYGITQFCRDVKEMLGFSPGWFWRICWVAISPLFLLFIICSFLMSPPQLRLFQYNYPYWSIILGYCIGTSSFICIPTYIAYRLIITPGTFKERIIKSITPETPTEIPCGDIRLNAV

[15] = target: Somatostatin receptor type 2 (Homo sapiens) (UniProt P30874); test: Somatostatin sst2 Eurofins-Panlabs radioligand binding assay; set-up: ligand concentration 0.03 nM; settings: Compound concentration 10.0 uM
Rattus norvegicus [16] = species on record: Rattus norvegicus; test: Protein Serine/Threonine Kinase, PKC, Non-Selective Eurofins-Panlabs enzyme assay; settings: Compound concentration 10.0 uM
[17] = target: T2, Glutamate NMDA receptor (Rattus norvegicus); settings: Compound concentration 10.0 uM; remark: listed apart in the source
Rattus norvegicus [18] = species on record: Rattus norvegicus; test: Inhibition of Glycine, Strychnine-Sensitive at 10 µM in the Eurofins-Panlabs radioligand binding assay (Eurofins_assay_239000); settings: Compound concentration 10.0 uM
[19] = target: Estrogen receptor (Homo sapiens) (UniProt P03372); settings: Compound concentration 10.0 uM
Estrogen receptor (Homo sapiens), sequence (P03372 whole entry): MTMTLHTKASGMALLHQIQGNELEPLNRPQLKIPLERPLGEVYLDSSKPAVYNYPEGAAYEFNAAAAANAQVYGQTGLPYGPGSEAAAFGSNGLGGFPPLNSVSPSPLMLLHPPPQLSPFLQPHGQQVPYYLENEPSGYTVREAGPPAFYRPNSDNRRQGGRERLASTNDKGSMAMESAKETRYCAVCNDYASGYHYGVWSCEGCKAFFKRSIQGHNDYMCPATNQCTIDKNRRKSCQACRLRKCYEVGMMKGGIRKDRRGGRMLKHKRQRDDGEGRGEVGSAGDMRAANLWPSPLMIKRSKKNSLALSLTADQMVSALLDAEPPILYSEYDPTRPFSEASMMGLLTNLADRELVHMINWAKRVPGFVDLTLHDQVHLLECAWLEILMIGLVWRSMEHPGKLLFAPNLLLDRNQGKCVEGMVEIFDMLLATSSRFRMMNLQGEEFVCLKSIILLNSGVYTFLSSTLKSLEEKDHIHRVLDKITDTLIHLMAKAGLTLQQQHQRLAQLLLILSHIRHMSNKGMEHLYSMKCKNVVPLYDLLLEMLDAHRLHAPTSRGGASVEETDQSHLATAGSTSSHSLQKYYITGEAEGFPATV

[20] = target: Sodium-dependent noradrenaline transporter (Homo sapiens) (UniProt P23975); settings: Compound concentration 10.0 uM
Rattus norvegicus [21] = species on record: Rattus norvegicus; test: Inhibition of Glutamate, NMDA, Phencyclidine at 10 µM in the Eurofins-Panlabs radioligand binding assay (Eurofins_assay_233000); assay type: protein-complex assay; settings: Compound concentration 10.0 uM
[22] = target: Mitogen-activated protein kinase 3 (Homo sapiens) (UniProt P27361); test: Inhibition of Protein Serine/Threonine Kinase, MAPK3 (ERK1) at 10 µM in the Eurofins-Panlabs enzyme assay (Eurofins_assay_171000); settings: Compound concentration 10.0 uM
Mitogen-activated protein kinase 3 (Homo sapiens), sequence (P27361 whole entry): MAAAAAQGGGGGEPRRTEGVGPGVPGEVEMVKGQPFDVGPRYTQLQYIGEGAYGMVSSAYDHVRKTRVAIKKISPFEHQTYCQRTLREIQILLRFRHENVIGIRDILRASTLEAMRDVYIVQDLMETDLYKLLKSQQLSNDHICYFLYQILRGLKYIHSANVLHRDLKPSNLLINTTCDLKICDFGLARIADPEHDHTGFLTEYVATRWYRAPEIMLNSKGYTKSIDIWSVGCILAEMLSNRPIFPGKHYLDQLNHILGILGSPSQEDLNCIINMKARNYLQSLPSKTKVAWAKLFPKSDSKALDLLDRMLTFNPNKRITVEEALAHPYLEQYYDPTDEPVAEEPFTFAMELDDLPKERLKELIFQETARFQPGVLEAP

[23] = target: Serine/threonine-protein kinase ULK1 (Homo sapiens) (UniProt O75385); settings: Compound concentration 100.0 nM
Serine/threonine-protein kinase ULK1 (Homo sapiens), sequence (O75385 whole entry): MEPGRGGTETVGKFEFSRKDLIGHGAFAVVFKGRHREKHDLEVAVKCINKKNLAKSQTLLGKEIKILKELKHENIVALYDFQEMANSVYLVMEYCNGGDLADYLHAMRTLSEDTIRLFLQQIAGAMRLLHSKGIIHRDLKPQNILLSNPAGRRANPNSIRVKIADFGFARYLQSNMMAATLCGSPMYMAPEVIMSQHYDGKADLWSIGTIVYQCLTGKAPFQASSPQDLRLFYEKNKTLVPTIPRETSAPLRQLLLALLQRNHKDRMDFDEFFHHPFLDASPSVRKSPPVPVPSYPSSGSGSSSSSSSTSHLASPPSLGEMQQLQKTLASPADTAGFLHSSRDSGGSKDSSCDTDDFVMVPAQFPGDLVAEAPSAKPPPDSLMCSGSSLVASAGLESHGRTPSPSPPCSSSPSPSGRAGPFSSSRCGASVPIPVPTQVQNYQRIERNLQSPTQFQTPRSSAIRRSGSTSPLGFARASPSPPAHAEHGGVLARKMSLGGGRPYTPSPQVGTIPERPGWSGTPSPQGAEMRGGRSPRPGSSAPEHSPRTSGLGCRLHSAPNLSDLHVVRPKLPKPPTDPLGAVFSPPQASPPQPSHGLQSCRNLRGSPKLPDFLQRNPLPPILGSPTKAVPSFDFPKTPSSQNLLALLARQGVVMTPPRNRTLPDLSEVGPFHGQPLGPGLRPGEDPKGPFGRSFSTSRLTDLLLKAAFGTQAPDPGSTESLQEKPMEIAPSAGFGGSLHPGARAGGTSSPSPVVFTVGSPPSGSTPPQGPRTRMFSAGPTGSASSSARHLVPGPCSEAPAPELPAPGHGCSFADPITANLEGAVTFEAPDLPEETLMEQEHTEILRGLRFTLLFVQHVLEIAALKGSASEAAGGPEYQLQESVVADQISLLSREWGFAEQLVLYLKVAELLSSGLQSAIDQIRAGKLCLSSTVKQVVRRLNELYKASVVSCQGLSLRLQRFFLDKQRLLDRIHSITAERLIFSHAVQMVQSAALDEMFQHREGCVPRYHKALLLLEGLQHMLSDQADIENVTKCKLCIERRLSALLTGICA

[24] = target: Phosphatidylinositol 5-phosphate 4-kinase type-2 gamma (Homo sapiens) (UniProt Q8TBX8); settings: Compound concentration 100.0 nM
Phosphatidylinositol 5-phosphate 4-kinase type-2 gamma (Homo sapiens), sequence (Q8TBX8 whole entry): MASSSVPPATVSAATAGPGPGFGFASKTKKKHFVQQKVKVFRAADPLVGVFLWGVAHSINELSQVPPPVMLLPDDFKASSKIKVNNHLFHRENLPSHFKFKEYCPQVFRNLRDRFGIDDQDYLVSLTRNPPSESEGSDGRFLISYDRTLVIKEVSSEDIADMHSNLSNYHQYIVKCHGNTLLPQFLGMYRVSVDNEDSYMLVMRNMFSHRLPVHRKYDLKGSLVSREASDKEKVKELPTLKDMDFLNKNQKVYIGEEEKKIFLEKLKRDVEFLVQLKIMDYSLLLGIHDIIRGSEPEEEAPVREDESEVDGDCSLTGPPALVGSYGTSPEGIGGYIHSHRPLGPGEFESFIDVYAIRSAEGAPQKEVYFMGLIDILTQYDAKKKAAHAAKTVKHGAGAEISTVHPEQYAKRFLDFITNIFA

[25] = target: Mitogen-activated protein kinase kinase kinase kinase 1 (Homo sapiens) (UniProt Q92918); settings: Compound concentration 100.0 nM

Caspase-3 (Homo sapiens), sequence (P42574 29-175 limits assumed): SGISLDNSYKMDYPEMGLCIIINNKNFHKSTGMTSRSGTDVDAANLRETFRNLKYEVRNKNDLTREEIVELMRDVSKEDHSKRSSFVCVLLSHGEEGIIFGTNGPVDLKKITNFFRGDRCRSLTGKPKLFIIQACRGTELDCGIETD
Caspase-3 (Homo sapiens), sequence (P42574 176-277 limits assumed): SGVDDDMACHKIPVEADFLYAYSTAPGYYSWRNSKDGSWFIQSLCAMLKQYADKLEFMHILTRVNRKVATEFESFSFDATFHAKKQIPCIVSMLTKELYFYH

COCCOc1nc(-c2ccc(Cl)nc2)nc2c1CN(C(=O)c1ncn3ccccc13)CC2 [THPP-1]
inactive: inhibition (Caspase-3 (Homo sapiens)) -1% | inhibition [1] 28% | inhibition [2] 1% | inhibition [3] 1% | inhibition [4] -3% | inhibition [5] 5% | inhibition [6] 0% | inhibition [7] -3% | inhibition (Rattus norvegicus [8]) 11% | inhibition [9] 8% | inhibition [10] -10% | inhibition [11] 17% | inhibition [12] 5% | inhibition (Rattus norvegicus [13]) 37% | inhibition [14] 2.72% | inhibition [15] 0% | inhibition (Rattus norvegicus [16]) 12% | inhibition [17] 3% | inhibition (Rattus norvegicus [18]) 15% | inhibition [19] -1% | inhibition [20] -6.81% | inhibition (Rattus norvegicus [21]) -10% | inhibition [22] 6%

CC(C)CC(=O)N1CCc2nc(-c3ccc(Br)cc3)nc(N(C)Cc3ccccc3)c2C1 [THPP-1-NC]
inactive: residual activity [23] 90% | residual activity [24] 96% | residual activity [25] 93%
